We go through two compounds from US8080582B2, “Derivatives of 8-epiblechnic acid and their effects on down-regulation of endothelin (ETA) receptor mRNA” (ScinoPharm Taiwan Ltd., priority 2008, dated 2011).

Format in all cases: cell-based
Data set [1] relates to endothelin receptor mRNA expression. Nature of the data set: PCR of endothelin receptor mRNA expression in vascular smooth muscle cells. To be noted: 100 μg/ml, 48 hrs, PCR 25 or 30 reaction cycles. As to the method: Extraction of cellular RNA: Subculturing smooth muscle cells to 100-mm culture dishes. After the cells had filled the culture dishes, Sal-B and its analogs were added to treat the cells for 48 hrs. After that, 1×PBS solutions were added to wash the cells three times. After adding 1 ml TRIzol, the cells were scraped off and placed in 1.5 ml micro-centrifuge tubes. Following the addition of 0.2 ml chloroform to each tube, the tubes were shaken, left at room temperature for 3 min., and run in a centrifuge at 12,000 rpm for 15 min. The supernatant liquid was removed and the cells placed in new micro-centrifuge tubes. After adding an amount of isopropyl alcohol equivalent to one-half of the volume of the supernatant liquid, and mixing until homogeneous, the samples were allowed to stand at room temperature for 10 min. The supernatant liquid was removed after centrifugation at 12,000 rpm for 10 min. 1 ml 70% alcohol was added to wash out salts, followed by centrifugation for 5 min. and removal of supernatant liquid. The samples were dissolved in 50 μl DEPC-H2O after drying.
(1) cDNA synthesis: 1 μl Random hexamer primer (20 μM) and 1 μl dNTP(10 mm) were added to 3 μg RNA, which was allowed to react at 65° C. for 5 min., and then placed on ice promptly. […]

Data set [2] concerns Vascular smooth muscle cells (cell line A10). Briefly: MTT cell viability / observation of normal vascular smooth muscle cells (A10). To be noted: A10 cells, drug concentration 0.2 mM, 48 hrs, MTT. As for the experimental part: (§1) The cells (1×10^5 cells/well in 24-well plates) were cultured for 24 hrs. Different concentrations of Sal-B and its analogs (0, 50, 100, 150, 200, 250 μg/ml) were added to treat the cells. After treating for 48 hrs, 100 μl MTT solution was added to each well, and the plate was placed in an incubator for 1-4 hrs. After adding 400 μl DMSO to treat the cells for 30 min., 200 μl samples were collected and placed in a 96-well plate to conduct the absorption measurement at 550 nm.
(§2) Cell viability testing (MTT testing) was employed to determine the cytotoxicity of Sal-B and EBA to vascular smooth muscle cells. Vascular smooth muscle cells (cell line A10) were treated with Sal-B and EBA at concentrations of 0, 0.1, 0.2, 0.3, 0.4, and 0.5 mM. After treating for 48 hrs, MTT was added and allowed to react for 3 hrs at 37° C. Then, DMSO was added and allowed to react for 30 min., after that, the OD570 absorption values were measured. Cell viability was still 90% when the drug concentration reached 0.2 mM.
(§3) Sal-B's analogs, compounds A to F, were dissolved in DMSO, and then added to A10 cells to observe the results.

Data set [3] in a line: MTT cell viability, prostate cancer cells. The settings on record: human, PC-3 prostate cancer cells; PC-3, 0.2 mM, 48 hrs, MTT. As to the method: as §1
(§4) Cancer cells were treated with Sal-B and EBA at concentrations of 0, 0.1, 0.2, 0.3, 0.4, 0.5 mM. After treating for 48 hrs, MTT was added, and then allowed to react for 3 hrs at 37° C. After that, DMSO was added and allowed to react for 30 min., the OD570 absorption values were measured. Cell viability was above 80% when nasopharyngeal cancer cells (Hone-1) were treated with […] Sal-B and EBA. […] But the cell viability remained above 70% for treating with 0.1 mM and 0.2 mM EBA. Similar results were obtained when prostate cancer cells (PC-3) were treated with the drugs: Cell viability was above 80% for treating PC-3 cells with 0.2 mM Sal-B or EBA.
MTT testing was employed to observe the viability of cancer cells after treating with Sal-B and the six synthetic analogs.

A short description of data set [4]: MTT cell viability / observation of normal vascular smooth muscle cells (A10). The settings on record: rat, A10 cells, drug concentration 0.2 mM, MTT. As for the experimental part:
as §1, §2, §3

The nature of data set [5]: MTT cell viability, nasopharyngeal cancer cells. The settings on record: human, Hone-1 nasopharyngeal cancer cells, 48 hrs, MTT. As for the experimental part: as §1, §4
Data set [6] concerns nasopharyngeal cancer cells (Hone-1). Nature of the data set: MTT cell viability, nasopharyngeal cancer cells. To be noted: Hone-1 cells, summary statement. As to the method:
as §1, §4

On to epiblechnic acid [EBA], for which, in data set [1], the “Endothelin receptor mRNA expression compared with control” value is recorded as “reduced as comparing with the control”. The compound further registered a Cell viability in data set [2] of 90%.

For `O=C(/C=C/c1ccc(O)c2c1[C@H](C(=O)O[C@H](Cc1ccc(O)c(O)c1)C(=O)[O-])[C@@H](c1ccc(O)c(O)c1)O2)O[C@H](Cc1ccc(O)c(O)c1)C(=O)[O-].[Mg+2]` [Sal-B, magnesium lithospermate B], in data set [1], the “Endothelin receptor mRNA expression compared with control” value is listed as “reduced as comparing with the control”. For the same compound, the results for the viability at 48 h, 0.2 mM in data set [3] and in data set [4] were > 80% and 90%, respectively. In data set [5] (Hone-1, 0.05 mM), the viability at 48 h, 0.05 mM is > 80%. Moreover, in data set [5] (Hone-1, 0.1 mM and 0.2 mM), the viability at 48 h was ~60%. Also, the “Inhibition of growth of Hone-1 cells” value in data set [6] is listed as “significantly inhibit the growth”.
